{"source": "paper PMC11137182", "about": "“Selective and brain-penetrant ACSS2 inhibitors target breast cancer brain metastatic cells” (Frontiers in Pharmacology, 2024)", "key": {"MDA-MB-231BR cells": {"system": "MDA-MB-231BR cells", "experiment": "BODIPY staining of lipid droplets", "format": "cell-based", "conditions": "100 μM, 48 h", "experimental": "Cells were treated with 5uM BODIPY 493/503 (Invitrogen) and NucBlue® Live reagent (Invitrogen) in PBS for 15 min, washed 2x with 1xPBS, fixed using 4% paraformaldehyde for 30 min at RT in the dark and washed in 1xPBS prior to mounting and imaging on EVOS FL (Life Technologies) using […] for BODIPY and DAPI channel for NucBlue."}, "[1]": {"system": "4T1BR tumor bearing brain slices", "experiment": "Ex vivo tumor-brain slice model", "parameters": "species or system nu/nu mice", "conditions": "4T1BR brain slices, 100 μM, 6 days, bioluminescence", "experimental": "(§1) Ex vivo brain slice tumor model was performed as previously described ([Ciraku et al., 2021]). Briefly, Nu/Nu athymic 4–6 week old mice Charles River Laboratories (Wilmington, MA, United States) were immobilized using the Just for Mice Stereotaxic Frame (Harvard Apparatus, Holliston, MA, United States) and injected intracranially with 5uL of 20,000 cells/uL solution of luciferase tagged MDA-MB-231BR or 4T1BR cells. Tumor growth was monitored via bioluminescence imaging on the IVIS system (Perkin Elmer, Waltman, MA, United States). Organotypic hippocampal cultures were prepared as described previously ([Ciraku et al., 2021]). Briefly, adult mice (4–6 weeks) or mice after 12 days following intracranial injection were decapitated and their brains rapidly removed into ice-cold (4°C) sucrose-aCSF composed of the following (in mM): 280 sucrose, 5 KCl, 2 MgCl2, 1 CaCl2, 20 glucose, 10 HEPES, 5 Na^+-ascorbate, 3 thiourea, 2 Na^+-pyruvate; pH = 7.3. […] Tumor growth was monitored via bioluminescence imaging on the IVIS 200 system (Perkin Elmer), and results were analyzed using Living Image software (Caliper Life Sciences, Waltham, MA, United StatesUnited States). […] Tissues were incubated at 37 ℃ , 5% CO2 for 4 h, and absorbance at 490 nm was measured with a Tecan Spark Microplate reader."}, "[2]": {"system": "brain slices not containing tumors", "experiment": "MTS cell viability of brain slices without tumor", "parameters": "species or system mice", "conditions": "100 μM, day 6, MTS assay", "experimental": "as §1"}, "MDR1 (P-gp)": {"system": "MDR1 (P-gp)", "experiment": "Bi-directional permeability across MDR1-MDCK cell monolayer (BBB assay)", "format": "in vitro ADME, canine", "conditions": "dog, MDR1-MDCK I monolayer", "from_the_text": "(§2) This assay provides the apparent permeability coefficient (Papp), efflux ratio, and % recovery to assess compound permeation."}, "MDR1-MDCK cells": {"system": "MDR1-MDCK cells", "experiment": "Bi-directional permeability across MDR1-MDCK cell monolayer (BBB assay)", "format": "in vitro ADME, canine", "conditions": "MDR1-MDCK BBB assay", "from_the_text": "as §2"}}}
{"compound": "N[C@H](C(=O)N1CCCC(c2ccccc2)(c2ccccc2)C1)C1CC1", "note": "[AD-8007]", "values": [{"measurement": "lipid droplet content", "setting": "MDA-MB-231BR cells", "value": "significantly reduced lipid droplet content"}, {"measurement": "tumor growth of preformed tumors ex vivo", "setting": "[1]", "value": "significantly reduced tumor growth of preformed tumors"}, {"measurement": "cell viability of brain slices without tumor", "setting": "[2]", "value": "did not alter cell viability"}, {"measurement": "Papp A→B", "setting": "MDR1 (P-gp); A to B", "value": 2.81, "unit": "×10⁻⁶ cm/s"}, {"measurement": "Papp B→A", "setting": "MDR1 (P-gp); B to A", "value": 25.2, "unit": "×10⁻⁶ cm/s"}, {"measurement": "efflux ratio (in words)", "setting": "MDR1-MDCK cells", "value": "low efflux ratio"}, {"measurement": "permeability (in words)", "setting": "MDR1-MDCK cells", "value": "moderate permeability"}]}
